For data set [1], the system named is TBP binding and basal transcription at the CMV MIEP. The experiment in a line: TBP binding and basal transcription, CMV MIEP. The class given is biochemical, human cytomegalovirus. An excerpt:
(§1) This method is a useful general approach for modulation of gene expression. For example, specific polyamides have been designed and synthesized that bind to double stranded DNA adjacent to the TATA element of the human cytomegalovirus major immediate early promoter (CMV MIEP). Polyamide CMV-1, ImImPyPy-γ-ImPyPyPy-β-Dp, binds the identified target sequence 5′-AGGTCT-3′, where the last T of this sequence is the 5′ T of the TATA element.

Data set [2] concerns the target 5′-AGGTCT-3′ adjacent to the TATA box of the CMV MIEP. The experiment in a line: Binding to the CMV MIEP next to the TATA element. More on the design: species or system human cytomegalovirus. The conditions noted are these: read-out: apparent dissociation constant.
Source text: as §1

The next data set concerns TFIIIA. The experiment in a line: footprint. The conditions noted are these: DNase I; binding inhibited >90% by 5 nM polyamide ImPyPyPy-γ-ImPyPyPy-β-Dp.
For another data set, the system named is LEF-1 DBD. The experiment in a line: footprint. The conditions noted are these: 10 mM Hepes pH 7.5, 100 mM KCl.
Data set [3] deals with TBP binding and transcription at the Her-2/neu promoter. The experiment in a line: TBP binding and transcription, Her-2/neu promoter. The class given is biochemical, human. An excerpt:
(§2) In another example, a polyamide was designed to bind immediately downstream of the TATA element found in the human Her-2/neu breast cancer oncogene promoter. […] Her-2/neu is recognized to be over-expressed in several cancers, including human gynecologic adenocarcinomas, including those of the ovary, endometrium, breast, fallopian tube and cervix (Cirisano, F. D., & Karlan, B. Y., J. Soc. Gynecol. Investig. 3 99-105 (1996)).

Data set [4] concerns the target 5′AGAATGA-3′ in the human Her-2/neu promoter. The experiment in a line: Binding downstream of the Her-2/neu TATA element. To be noted: read-out: apparent dissociation constant.
Source text: as §2

Data set [5] deals with 5′-WGWWWCW-3′ target sequence. The conditions noted are these: hairpin conformation; Trauger et al. 1996; cited from earlier work.
Another data set relates to 5′-TGTTACA-3′. The experiment in a line: Quantitative DNase I footprint titration, pJT2B2 fragment. The class given is binding.
For a further data set, the target named is TBP (rhTBP) (Homo sapiens, UniProt P20226 P20226:1-339). The experiment in a line: EMSA; not inhibited by HIV-1 polyamide. The conditions noted are these: tags: Promega; label: 32P. On the technique in general: Mobility shift assays separate free from complexed probe on a gel.
The target of the next data set is HIV-1 TATA element. The experiment in a line: TBP binding to the HIV-1 TATA element. On the procedure: TBP binds the HIV-1 TATA element with a Kd of ˜1-3 nM.

Turning to ImImPyPy-γ-ImPyPyPy-β-Dp [CMV-1], in data set [1], the “inhibition of TBP binding and basal transcription” value was “effective inhibitor”. In addition, the Kd in [2] was found to be 1 nM.

5S RNA gene internal control region: the Kd with TFIIIA amounted to 1 nM.

HIV-1 LEF-1 site L3: the Kd with LEF-1 DBD (1 mM MgCl2) was 4.9 nM.

With ImPy-β-PyIm-γ-PyPy-β-PyPy-β-Dp [Her2-1], in data set [3], the “inhibition of TBP binding and transcription” value is recorded as “effective inhibitor”. The Kd in data set [4] stood at 0.02 nM. As to “ImPyPyPyPy-γ-ImPyPyPyPy-β-Dp [polyamide 3]”, in [5], the “affinity for seven base pair target sequence” value is recorded as “subnanomolar”. Consider `CN(C)CCCNC(=O)CCNC(=O)c1cc(NC(=O)c2cc(NC(=O)CCNC(=O)c3cc(NC(=O)c4nc(NC(=O)CCCNC(=O)c5cc(NC(=O)c6cc(NC(=O)CCNC(=O)c7cc(NC(=O)c8nccn8C)cn7C)cn6C)cn5C)cn4C)cn3C)cn2C)cn1C` [polyamide 6, ImPy-β-PyPy-γ-ImPy-β-PyPy-β-Dp], for which the “Equilibrium association constants, 5′-aTGTTACAt-3′” value in the data set with 5′-TGTTACA-3′ (24° C., pH 7.0, 10 mM Tris.HCl, 10 mM KCl, 10 mM MgCl2, 5 mM CaCl2, mean (SD)) is recorded as “greater than 1×10^9 M^−1”. Also, the “fold higher affinity relative to unlinked analog” value in the data set with 5′-TGTTACA-3′ (polyamide 6 vs 9, polyamide 3 vs 7) is around 1000 fold. Molecule HIV-1 enhancer LEF-1 site L1 showed a Kd in the data set with LEF-1 DBD (1 mM MgCl2, 1 mM DTT, 1.5 nM stated in p144) of 1.4 nM. HIV-1 LEF-1 site L2 displayed a Kd with LEF-1 DBD (1 mM MgCl2) of 5.8 nM.

B1: AdML TATA region oligo (dsDNA)
DNA 1: GATCGGGGGCTATAAAAGGGGGTGGG
DNA 2: CCCACCCCCTTTTATAGCCCCCGATC
Regarding B1, the binding result in the data set with TBP (rhTBP) was “binds”.

B2: TBP: TATA-box binding protein, recombinant human TBP (protein, UniProt P20226 1-339, looked up)
TATA-box-binding protein: MDQNNSLPPYAQGLASPQGAMTPGIPIFSPMMPYGTGLTPQPIQNTNSLSILEEQQRQQQQQQQQQQQQQQQQQQQQQQQQQQQQQQQQQQQQQQAVAAAAVQQSTSQQATQGTSGQAPQLFHSQTLTTAPLPGTTPLYPSPMTPMTPITPATPASESSGIVPQLQNIVSTVNLGCKLDLKTIALRARNAEYNPKRFAAVIMRIREPRTTALIFSSGKMVCTGAKSEEQSRLAARKYARVVQKLGFPAKFLDFKIQNMVGSCDVKFPIRLEGLVLTHQQFSSYEPELFPGLIYRMIKPRIVLLIFVSGKVVLTGAKVRAEIYEAFENIYPILKGFRKTT
Molecule B2 came in with a Kd at HIV-1 TATA element of 1 to 3 nM.

The record behind these values is patent US6660255B1, “Inhibition of gene transcription by polyamide DNA-binding ligands” (California Institute of Technology, priority 1997, dated 2003).
